From US20040198789A1, “Lercanidipine/ARB/diuretic therapeutic combinations” (Recordati Ireland Limited, priority 2003, published 2004)

Columns and labels:
[1] = cited from earlier work; for time of peak serum/plasma concentration: following oral administration; for terminal half-life: in vivo
[2] = molecular target: ACE (Homo sapiens, UniProt P12821); settings: cited from earlier work
[3] = system: reperfusion-induced hypertension in uninephrectomized anesthetized rats; assay: Model of acute angiotensin-mediated renal hypertension in anesthetized rats (SBP, DBP, HR); assay type: in vivo, rat
[4] = system: reperfusion-induced hypertension in uninephrectomized anesthetized rats; assay: as above; assay type: in vivo, rat; remark: listed apart in the source
Description: Male Sprague-Dawley rats, weighing 250-300 g, were anaesthetized with pentobarbital sodium (35 mg/kg, i.p.) and placed on a thermic blanket. The temperature was maintained at 37° C. with a thermoregulator via a rectal probe. The animals were tracheotomized to facilitate spontaneous breathing. A polyethylene catheter was placed in the left jugular vein to allow for infusion of pentobarbital sodium to maintain anesthesia. The left femoral vein and artery were cannulated with polyethylene catheters to allow drugs administration and to monitor blood pressure, respectively.
Animals then underwent a left nephrectomy by excising the left kidney via a flank incision. The right kidney and renal vein, artery and ureter were then exposed via a right retroperitoneal incision, under a dissecting microscope. Silk threads were placed around both vessels and ureter. The cavity was then covered with Vaseline oil.
After 30-60 minutes of basal recordings of arterial blood pressure and heart rate the threads around the renal vessels and ureter were tied close to the renal hilum to induce complete renal ischemia of the right kidney. After 2 hours of ischemia, the threads were removed to allow renal reperfusion and urine output.
For irbesartan experiments and comparisons, control (vehicle) or drug (irbesartan (100 μg/kg), lercanidipine (7.5 μg/kg), or both lercanidipine (7.5 μg/kg) and irbesartan (100 μg/kg)) were administered intravenously at 5 min after reperfusion was begun.
Results were expressed as mean values ±S.E. (in the tables) and in percent change observed.
To evaluate the effects of drugs administration on blood pressure and heart rate within each group, two-way ANOVA and Dunnet's test were used (“within treatment”). To evaluate the statistical differences among the treatment groups, data are analyzed using a three-way ANOVA (analysis of variance) with repeated measures on factor time and pre-planned multiple comparisons. The analysis was performed using, for each treatment, delta values (log transformation). […] (“between treatments”).

[5] = molecular target: T1, AT1 receptor (Homo sapiens, UniProt P30556); settings: cited from earlier work
T1 sequence (P30556 1-359): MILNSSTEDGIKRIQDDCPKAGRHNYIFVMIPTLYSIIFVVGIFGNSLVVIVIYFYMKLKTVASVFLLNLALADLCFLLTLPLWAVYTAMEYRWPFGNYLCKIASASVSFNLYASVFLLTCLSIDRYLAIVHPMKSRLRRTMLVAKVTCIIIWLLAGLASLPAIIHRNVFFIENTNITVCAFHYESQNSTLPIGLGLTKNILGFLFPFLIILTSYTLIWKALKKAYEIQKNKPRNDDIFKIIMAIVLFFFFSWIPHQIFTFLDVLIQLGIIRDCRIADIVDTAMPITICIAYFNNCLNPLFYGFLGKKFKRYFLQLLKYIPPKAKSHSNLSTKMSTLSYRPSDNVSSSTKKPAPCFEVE

[6] = between treatments, three-way ANOVA on delta values, lercanidipine 10 μg/kg, valsartan 30 μg/kg i.v.
[7] = valsartan 30 μg/kg i.v., n=7, time 0 min, basal, pre-drug
[8] = valsartan 30 μg/kg i.v., n=7, time 120 min, end of ischemia, pre-drug
[9] = valsartan 30 μg/kg i.v., n=7, time 130 min, 5 min after drug
[10] = valsartan 30 μg/kg i.v., n=7, time 135 min, 10 min after drug
[11] = valsartan 30 μg/kg i.v., n=7, time 150 min, 25 min after drug
[12] = valsartan 30 μg/kg i.v., n=7, time 165 min, 40 min after drug
[13] = valsartan 30 μg/kg i.v., n=7, time 180 min, 55 min after drug
[14] = valsartan 30 μg/kg i.v., n=7, time […], 5 min reperfusion, pre-drug
[15] = between treatments, three-way ANOVA on delta values, lercanidipine 7.5 μg/kg, irbesartan 100 μg/kg i.v.
[16] = irbesartan 100 μg/kg i.v., n=6, time 0 min, basal, pre-drug
[17] = irbesartan 100 μg/kg i.v., n=6, time 120 min, end of ischemia, pre-drug
[18] = irbesartan 100 μg/kg i.v., n=6, time 130 min, 5 min after drug
[19] = irbesartan 100 μg/kg i.v., n=6, time 135 min, 10 min after drug
[20] = irbesartan 100 μg/kg i.v., n=6, time 150 min, 25 min after drug
[21] = irbesartan 100 μg/kg i.v., n=6, time 165 min, 40 min after drug
[22] = irbesartan 100 μg/kg i.v., n=6, time 180 min, 55 min after drug
[23] = irbesartan 100 μg/kg i.v., n=6, time […], 5 min reperfusion, pre-drug

Chain of ACE (P12821 30-1306, species assumed): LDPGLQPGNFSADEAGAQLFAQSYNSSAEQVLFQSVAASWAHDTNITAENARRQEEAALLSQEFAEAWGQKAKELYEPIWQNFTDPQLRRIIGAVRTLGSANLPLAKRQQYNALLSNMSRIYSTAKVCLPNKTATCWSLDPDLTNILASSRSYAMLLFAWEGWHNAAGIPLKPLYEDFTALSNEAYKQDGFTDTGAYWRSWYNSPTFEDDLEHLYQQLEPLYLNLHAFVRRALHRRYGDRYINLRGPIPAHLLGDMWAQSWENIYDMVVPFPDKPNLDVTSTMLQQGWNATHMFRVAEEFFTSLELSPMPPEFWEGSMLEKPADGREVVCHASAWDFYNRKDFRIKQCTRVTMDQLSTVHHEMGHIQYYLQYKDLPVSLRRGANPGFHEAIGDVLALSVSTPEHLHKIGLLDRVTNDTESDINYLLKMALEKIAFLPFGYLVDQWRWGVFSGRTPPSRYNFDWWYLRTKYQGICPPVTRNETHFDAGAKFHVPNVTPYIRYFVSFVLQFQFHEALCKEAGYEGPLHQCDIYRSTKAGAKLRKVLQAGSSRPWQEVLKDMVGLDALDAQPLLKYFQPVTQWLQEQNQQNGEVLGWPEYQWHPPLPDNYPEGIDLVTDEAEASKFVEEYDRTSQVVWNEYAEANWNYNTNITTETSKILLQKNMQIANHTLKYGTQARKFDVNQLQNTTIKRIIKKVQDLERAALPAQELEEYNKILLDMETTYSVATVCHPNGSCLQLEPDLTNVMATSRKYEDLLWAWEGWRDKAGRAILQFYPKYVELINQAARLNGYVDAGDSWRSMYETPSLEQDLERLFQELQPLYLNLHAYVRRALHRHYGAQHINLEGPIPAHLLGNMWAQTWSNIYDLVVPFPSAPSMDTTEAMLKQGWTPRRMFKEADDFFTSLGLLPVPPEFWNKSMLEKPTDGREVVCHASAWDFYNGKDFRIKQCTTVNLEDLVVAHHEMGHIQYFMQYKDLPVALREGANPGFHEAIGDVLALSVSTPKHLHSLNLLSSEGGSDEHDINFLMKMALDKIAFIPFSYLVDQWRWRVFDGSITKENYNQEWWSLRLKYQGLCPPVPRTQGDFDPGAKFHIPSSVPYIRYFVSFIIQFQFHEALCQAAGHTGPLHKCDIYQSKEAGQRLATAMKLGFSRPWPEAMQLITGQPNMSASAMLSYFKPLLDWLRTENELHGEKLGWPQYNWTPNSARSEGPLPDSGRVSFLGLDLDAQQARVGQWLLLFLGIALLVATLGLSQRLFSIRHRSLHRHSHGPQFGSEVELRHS

For CCCc1nc(C(C)(C)O)c(C(=O)O)n1Cc1ccc(-c2ccccc2-c2nnn[nH]2)cc1 [olmesartan, 4-(1-hydroxy-1-methylethyl)-2-propyl-1-[p-(o-1H-tetrazol-5-ylphenyl)benzyl]imidazole-5-carboxylic acid], the “cleared in the urine” value ([1]; following oral administration of olmesartan) is given as 35 to 50%, the “time of peak serum/plasma concentration” value [1] is given as 1 to 2 h and the “inhibition of ACE” value [2] is given as “does not inhibit”.
For CCCCc1nc(Cl)c(C(=O)O)n1Cc1ccc(-c2ccccc2-c2nn[nH]n2)cc1 [active carboxylic acid metabolite], the “time of peak serum/plasma concentration” value [1] is given as 3 to 4 h and the terminal half-life [1] is given as 6 to 9 h.
With CCCCC(=O)N(Cc1ccc(-c2ccccc2-c2nnn[nH]2)cc1)[C@H](C(=O)O)C(C)C [valsartan, N-(1-oxopentyl)-N-[[2′-(1H-tetrazol-5-yl)[1,1′-biphenyl]-4-yl]methyl]-L-valine] the “Diastolic blood pressure: general differences among groups: p vs Vehicle” value [3, 6] was “p < 0.01”, the “Heart rate: general differences among groups: p vs Vehicle” value [3, 6] was “ns” and the “Systolic blood pressure: general differences among groups: p vs Vehicle” value [3, 6] was “ns”. For the same molecule, the “effect on heart rate (in words)” value ([3]; lercanidipine 10 μg/kg, valsartan 30 μg/kg i.v., alone or together) was “no statistically significant modification on heart rate”, the “time of statistically significant decrease in diastolic blood pressure after administration” value ([3]; within treatment vs […], lercanidipine 10 μg/kg or valsartan 30 μg/kg i.v.) was 5 to 55 min and the DBP [4, 7] was 66.7 ± 4.1 mmHg. The HR [4, 7] was 372.9 ± 8.4 beats/min, the SBP [4, 7] was 126.4 ± 5.5 mmHg and the DBP [4, 8] was 62.1 ± 4.4 mmHg. It also gave an HR [4, 8] of 366.4 ± 10.9 beats/min, an SBP [4, 8] of 120.1 ± 4.3 mmHg and a DBP [4, 9] of 90.4 ± 4.4 b mmHg. For the same molecule, the HR [4, 9] was 372.1 ± 10.0 beats/min, the SBP [4, 9] was 145.6 ± 1.7 mmHg and the DBP [4, 10] was 87.1 ± 5.2 b mmHg. It also gave an HR [4, 10] of 381.4 ± 7.3 beats/min, an SBP [4, 10] of 143.4 ± 1.0 a mmHg and a DBP [4, 11] of 81.4 ± 4.5 b mmHg. For the same molecule, the HR [4, 11] was 382.1 ± 6.9 beats/min, the SBP [4, 11] was 136.7 ± 1.9 b mmHg and the DBP [4, 12] was 79.7 ± 4.6 b mmHg. The HR [4, 12] was 375.7 ± 7.6 beats/min, the SBP [4, 12] was 135.6 ± 4.0 b mmHg and the DBP [4, 13] was 77.3 ± 4.7 b mmHg. It also gave an HR [4, 13] of 368.6 ± 6.7 beats/min, an SBP [4, 13] of 130.0 ± 3.9 b mmHg and a DBP [4, 14] of 108.1 ± 3.8 mmHg. For the same molecule, the HR [4, 14] was 362.1 ± 12.9 beats/min, the SBP [4, 14] was 161.0 ± 2.4 mmHg and the “time of peak serum/plasma concentration” value [1] was 2 to 4 h. For the same molecule, the “inhibition of ACE” value [2] was “does not inhibit”.
For CCCCc1ncc(/C=C(\Cc2cccs2)C(=O)O)n1Cc1ccc(C(=O)O)cc1 [Eprosartan, (E)-2-butyl-1 (p-carboxybenzyl)-α-2-thienylmethylimidazole-5-acrylic acid], the “time of peak serum/plasma concentration” value [1] is listed as 1 to 2 h and the “affinity for the AT1 receptor relative to the AT2 receptor” value [5] is listed as “about 1000 times”.
In the case of CCCc1nc2c(C)cc(-c3nc4ccccc4n3C)cc2n1Cc1ccc(-c2ccccc2C(=O)O)cc1 [Telmisartan, 4′-[1,4′-dimethyl-2[-propyl[2,6′-bi-1H-benzimidazol]-1′-yl)methyl]-[1,1′-biphenyl]-2-carboxylic acid], the “time of peak serum/plasma concentration” value [1] is listed as 0.5 to 1 h, the “administered dose eliminated unchanged in feces via biliary excretion” value ([1]; intravenous or oral administration) is listed as over 97% and the “inhibition of ACE” value [2] is listed as “does not inhibit”.
In the case of CCCCc1nc(Cl)c(CO)n1Cc1ccc(-c2ccccc2-c2nnn[nH]2)cc1.[K] [losartan, 2-butyl-4-chloro-1-[p-(o-1H-tetrazol-5-ylphenyl)-benzyl]imidazole-5-methanol monopotassium salt], the “time of peak serum/plasma concentration” value [1] is listed as 1 h, the terminal half-life [1] is listed as “about 2 hours” and the “inhibition of ACE” value [2] is listed as “does not inhibit”.
In the case of CCCCC1=NC2(CCCC2)C(=O)N1Cc1ccc(-c2ccccc2-c2nnn[nH]2)cc1 [irbesartan, 2-butyl-3-[[2′-(1H-tetrazol-5-yl)[1,1′-biphenyl]-4-yl]methyl]-1,3-diazaspiro[4.4]non-1-en-4-one], the “Diastolic blood pressure: general differences among groups: p vs Vehicle” value [4, 15] is reported as “p < 0.05”, the “Heart rate differences among groups: p vs Vehicle” value [4, 15] is reported as “ns” and the “Systolic blood pressure differences among groups: p vs Vehicle” value [4, 15] is reported as “ns”. It also gave a DBP [4, 16] of 63.8 ± 3.5 mmHg, an HR [4, 16] of 373.3 ± 14.5 beats/min and an SBP [4, 16] of 113.3 ± 6.7 mmHg. The DBP [4, 17] was 59.0 ± 2.0 mmHg, the HR [4, 17] was 360.0 ± 13.4 beats/min and the SBP [4, 17] was 112.0 ± 5.6 mmHg. For the same molecule, the DBP [4, 18] was 86.3 ± 5.8 b mmHg, the HR [4, 18] was 341.7 ± 13.8 beats/min and the SBP [4, 18] was 134.3 ± 5.5 b mmHg. The DBP [4, 19] was 90.0 ± 5.6 b mmHg, the HR [4, 19] was 346.7 ± 13.6 beats/min and the SBP [4, 19] was 138.7 ± 5.3 b mmHg. The DBP [4, 20] was 91.7 ± 6.1 b mmHg, the HR [4, 20] was 361.7 ± 7.5 a beats/min and the SBP [4, 20] was 139.0 ± 5.7 b mmHg. It also gave a DBP [4, 21] of 85.7 ± 6.6 b mmHg, an HR [4, 21] of 363.3 ± 11.8 a beats/min and an SBP [4, 21] of 136.0 ± 7.6 b mmHg. For the same molecule, the DBP [4, 22] was “b 79.3 ± 8.1 b mmHg”, the HR [4, 22] was 375.0 ± 13.1 b beats/min and the SBP [4, 22] was 125.7 ± 8.3 mmHg. The DBP [4, 23] was 107.0 ± 4.8 mmHg, the HR [4, 23] was 336.7 ± 14.1 beats/min and the SBP [4, 23] was 153.7 ± 5.1 mmHg. The “effect on heart rate (in words)” value ([4]; lercanidipine 7.5 μg/kg, irbesartan 100 μg/kg i.v., alone or together) was “no statistically significant change in heart rate”, the “effect on blood pressure (in words)” value ([4]; lercanidipine 7.5 μg/kg, irbesartan 100 μg/kg i.v., alone or together, 5 min after reperfusion) was “statistically significant decrease in both systolic and diastolic blood pressure” and the “time of peak serum/plasma concentration” value [1] was 1.5 to 2 h. For the same molecule, the “inhibition of ACE” value [2] was “does not inhibit” and the “greater affinity for AT1 receptor compared to AT2 receptor” value [5] was “more than 8500 fold”.
In the case of CCOc1nc2cccc(C(=O)O)c2n1Cc1ccc(-c2ccccc2-c2nnn[nH]2)cc1 [Candesartan free acid], the “greater affinity for the AT1 receptor than the AT2 receptor” value [5] is given as < 10,000.
